This passage reports IC50 results from patent US20260356840A1, “[1,2,4]TRIAZOLO[1,5-A]PYRIMIDINONE WRN INHIBITORS” (Nimbus Wadjet, Inc., priority 2023, published 2026).

Bounds are passed on as bounds.

This test deals with T1, human Werner helicase (Uniprot Q14191, amino acids 517-1235 with L1074F point mutation), WRN-BV08 (Homo sapiens, UniProt Q14191, L1074F).
T1 construct: Uniprot Q14191, amino acids 517-1235 with L1074F point mutation; TEV cleavable 8xHis tag (C, cleaved yes); made in house; host or cells: Sf9 insect cells (baculovirus, pFastBac)
T1 sequence (Q14191 517-1235 L1074F): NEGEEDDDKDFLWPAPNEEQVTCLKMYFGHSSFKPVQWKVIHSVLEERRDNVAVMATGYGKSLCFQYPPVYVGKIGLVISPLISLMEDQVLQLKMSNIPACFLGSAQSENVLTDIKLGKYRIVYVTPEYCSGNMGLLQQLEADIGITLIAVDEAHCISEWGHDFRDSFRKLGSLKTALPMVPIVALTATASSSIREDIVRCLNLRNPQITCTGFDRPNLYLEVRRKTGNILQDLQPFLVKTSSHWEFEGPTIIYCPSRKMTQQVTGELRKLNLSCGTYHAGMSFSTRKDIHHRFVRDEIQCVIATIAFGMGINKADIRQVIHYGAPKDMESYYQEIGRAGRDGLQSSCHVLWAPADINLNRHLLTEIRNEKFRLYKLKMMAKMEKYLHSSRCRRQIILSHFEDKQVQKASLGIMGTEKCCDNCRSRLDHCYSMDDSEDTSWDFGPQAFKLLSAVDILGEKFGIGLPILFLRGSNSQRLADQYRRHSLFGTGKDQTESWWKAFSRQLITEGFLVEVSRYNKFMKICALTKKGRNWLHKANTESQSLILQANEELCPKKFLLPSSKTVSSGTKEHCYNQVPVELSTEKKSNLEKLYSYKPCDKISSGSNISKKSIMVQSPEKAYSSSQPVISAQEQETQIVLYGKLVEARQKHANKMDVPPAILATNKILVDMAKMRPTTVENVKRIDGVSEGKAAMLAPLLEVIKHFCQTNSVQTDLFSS
The test is described as follows: WRN (BV08) ADP-Glo Assay. Type of test: biochemical. As for the experimental part: DNA duplex was synthesized at BGI (Shenzhen, China) and was composed of strand 1 with the sequence 5′-[…]-3′ (SEQ ID NO.: 1) and strand 2 with the sequence 5′-[…]-3′ (SEQ ID NO.: 2). DNA strands were annealed by heating to 95 °C for 5 minutes followed by slow cooling to room temperature. […] DMSO (0.1 μl) was added to columns 12, rows A-H and column 24, rows I-P for the maximum signal control.
Where RLU=relative luminescence units, sample=signal in sample well, and MIN and MAX are the respective minimum and maximum signal controls. • Four-parameter IC50 fit equation:
Y=Bottom+(Top−Bottom)/(1+(IC50/X)^Hill Slope)
Where top and bottom are normally allowed to float but may be fixed at 100 or 0 respectively in a 3-parameter fit. Y is the % inhibition and X is the compound concentration.
Molecular Biology and virus production. […] The baculovirus from the expression plasmid WRN-BV08 was generated from transfection and amplification following the manufacturer's instructions.
Sf9 cells grown in SF900II media were infected with 1:200 WRN-BV08 P2 virus and incubated for protein expression for 72 h at 27 °C. The WRN protein was purified using the following protocol. The cell pellets were thawed and resuspended in buffer A (50 mM Tris, pH 7.5, 500 mM NaCl, 1 mM TCEP, 10% Glycerol) supplemented with 0.5% CHAPS, 1 mM [COMPOUND LEFT OUT], 1 μg/ml Leupeptin, 1 μg/ml Pepstatin, and the Pierce Universal Nuclease and cocktail tablet. Cleared lysates were loaded onto a Ni Sepharose™ excel column and washed with buffer A and bound protein was eluted with buffer A supplemented with 300 mM imidazole. The eluted protein was dialyzed against buffer A and digested by His-tagged TEV (1:5 ratio) overnight at 4 °C. […] Untagged WRN protein was eluted from the column with buffer A supplemented with 20 mM imidazole, dialyzed overnight into buffer B (50 mM Tris, pH 7.5, 1 mM TCEP, 10% Glycerol) supplemented with 150 mM NaCl and loaded onto a Heparin column. Proteins were eluted with a step gradient of buffer B supplemented with 150 mM, 200 mM, 300 mM and 500 mM NaCl.
A general note: In ADP-Glo the light output rises with the ADP produced.
In general, IC50 refers to the concentration needed to halve the response being measured. A higher IC50 goes with weaker potency. `CCc1c(N2CCN(C(=O)c3cccc4cccnc34)CC2)c(=O)n2nc(C3=CCOCC3)nc2n1CC(=O)Nc1ccc(C(F)(F)F)cc1Cl` [Compound I-19, N-[2-chloro-4-(trifluoromethyl)phenyl]-2-[2-(3,6-dihydro-2H-pyran-4-yl)-5-ethyl-7-oxo-6-[4-(quinoline-8-carbonyl)piperazin-1-yl]-4H,7H-[1,2,4]triazolo[1,5-a]pyrimidin-4-yl]acetamide]: the half-maximal inhibitory concentration (IC50) was in the range of 5 to 50 nM.

The compound `CCc1c(N2CCN(C(=O)C(C)(C)CO)CC2)c(=O)n2nc(C3=CCOCC3)nc2n1CC(=O)Nc1ccc(C(F)(F)F)cc1Cl` [Compound I-20, N-[2-chloro-4-(trifluoromethyl)phenyl]-2-[2-(3,6-dihydro-2H-pyran-4-yl)-5-ethyl-6-[4-(3-hydroxy-2,2-dimethylpropanoyl)piperazin-1-yl]-7-oxo-4H,7H-[1,2,4]triazolo[1,5-a]pyrimidin-4-yl]acetamide] showed a 50% inhibitory concentration (IC50) of 5 to 50 nM.

On to `CCc1c(N2CCN(C(=O)c3ncnc(C)c3O)CC2)c(=O)n2nc(-c3ccnc(OC)c3)nc2n1CC(=O)Nc1ccc(C(F)(F)F)cc1Cl` [Compound I-21, N-[2-chloro-4-(trifluoromethyl)phenyl]-2-{5-ethyl-6-[4-(5-hydroxy-6-methylpyrimidine-4-carbonyl)piperazin-1-yl]-2-(2-methoxypyridin-4-yl)-7-oxo-4H,7H-[1,2,4]triazolo[1,5-a]pyrimidin-4-yl}acetamide], for which the IC50 was in the range of 5 to 50 nM.

As for `CCc1c(N2CCN(C(=O)c3ncnc(C)c3O)CC2)c(=O)n2nc(-c3ccc(OC)nc3)nc2n1CC(=O)Nc1ccc(C(F)(F)F)cc1Cl` [Compound I-22, N-[2-chloro-4-(trifluoromethyl)phenyl]-2-{5-ethyl-6-[4-(5-hydroxy-6-methylpyrimidine-4-carbonyl)piperazin-1-yl]-2-(6-methoxypyridin-3-yl)-7-oxo-4H,7H-[1,2,4]triazolo[1,5-a]pyrimidin-4-yl}acetamide], the IC50 was 5 to 50 nM.

Take `CCc1c(N2CCN(C(=O)c3cnn(C)c3)CC2)c(=O)n2nc(C3=CCOCC3)nc2n1CC(=O)Nc1ccc(C(F)(F)F)cc1Cl` [Compound I-23, N-[2-chloro-4-(trifluoromethyl)phenyl]-2-[2-(3,6-dihydro-2H-pyran-4-yl)-5-ethyl-6-[4-(1-methyl-1H-pyrazole-4-carbonyl)piperazin-1-yl]-7-oxo-4H,7H-[1,2,4]triazolo[1,5-a]pyrimidin-4-yl]acetamide]: the IC50 was 5 to 50 nM.

In turn, `CCc1c(N2CCN(C(=O)CCO)CC2)c(=O)n2nc(C3=CCOCC3)nc2n1CC(=O)Nc1ccc(C(F)(F)F)cc1Cl` [Compound I-24, N-[2-chloro-4-(trifluoromethyl)phenyl]-2-[2-(3,6-dihydro-2H-pyran-4-yl)-5-ethyl-6-[4-(3-hydroxypropanoyl)piperazin-1-yl]-7-oxo-4H,7H-[1,2,4]triazolo[1,5-a]pyrimidin-4-yl]acetamide] returned a half-maximal inhibitory concentration (IC50) of 5 to 50 nM.

Consider `CCc1c(N2CCN(C(=O)CC#N)CC2)c(=O)n2nc(C3=CCOCC3)nc2n1CC(=O)Nc1ccc(C(F)(F)F)cc1Cl` [Compound I-25, N-[2-chloro-4-(trifluoromethyl)phenyl]-2-{6-[4-(2-cyanoacetyl)piperazin-1-yl]-2-(3,6-dihydro-2H-pyran-4-yl)-5-ethyl-7-oxo-4H,7H-[1,2,4]triazolo[1,5-a]pyrimidin-4-yl}acetamide], for which the 50% inhibitory concentration (IC50) was 5 to 50 nM.

`CCc1c(N2CCN(C(=O)c3cnn(C)c3O)CC2)c(=O)n2nc(C3=CCOCC3)nc2n1CC(=O)Nc1ccc(C(F)(F)F)cc1Cl` [Compound I-26, N-[2-chloro-4-(trifluoromethyl)phenyl]-2-[2-(3,6-dihydro-2H-pyran-4-yl)-5-ethyl-6-[4-(5-hydroxy-1-methyl-1H-pyrazole-4-carbonyl)piperazin-1-yl]-7-oxo-4H,7H-[1,2,4]triazolo[1,5-a]pyrimidin-4-yl]acetamide] showed an IC50 of 5 to 50 nM.

The compound `CCc1c(N2CCN(C(=O)c3nsnc3O)CC2)c(=O)n2nc(C3=CCOCC3)nc2n1CC(=O)Nc1ccc(C(F)(F)F)cc1Cl` [Compound I-27, N-[2-chloro-4-(trifluoromethyl)phenyl]-2-[2-(3,6-dihydro-2H-pyran-4-yl)-5-ethyl-6-[4-(4-hydroxy-1,2,5-thiadiazole-3-carbonyl)piperazin-1-yl]-7-oxo-4H,7H-[1,2,4]triazolo[1,5-a]pyrimidin-4-yl]acetamide] gave an IC50 of 5 to 50 nM.

With `CCc1c(N2CCN(C(=O)c3c(O)noc3C)CC2)c(=O)n2nc(C3=CCOCC3)nc2n1CC(=O)Nc1ccc(C(F)(F)F)cc1Cl` [Compound I-28, N-[2-chloro-4-(trifluoromethyl)phenyl]-2-[2-(3,6-dihydro-2H-pyran-4-yl)-5-ethyl-6-[4-(3-hydroxy-5-methyl-1,2-oxazole-4-carbonyl)piperazin-1-yl]-7-oxo-4H,7H-[1,2,4]triazolo[1,5-a]pyrimidin-4-yl]acetamide], the IC50 is < 5 nM.

With `CCc1c(N2CCN(C(=O)c3nocc3O)CC2)c(=O)n2nc(C3=CCOCC3)nc2n1CC(=O)Nc1ccc(C(F)(F)F)cc1Cl` [Compound I-29, N-[2-chloro-4-(trifluoromethyl)phenyl]-2-[2-(3,6-dihydro-2H-pyran-4-yl)-5-ethyl-6-[4-(4-hydroxy-1,2-oxazole-3-carbonyl)piperazin-1-yl]-7-oxo-4H,7H-[1,2,4]triazolo[1,5-a]pyrimidin-4-yl]acetamide], the IC50 was < 5 nM.

In the case of `CCc1c(N2CCN(C(=O)c3ccn(C)n3)CC2)c(=O)n2nc(C3=CCOCC3)nc2n1CC(=O)Nc1ccc(C(F)(F)F)cc1Cl` [Compound I-30, N-[2-chloro-4-(trifluoromethyl)phenyl]-2-[2-(3,6-dihydro-2H-pyran-4-yl)-5-ethyl-6-[4-(1-methyl-1H-pyrazole-3-carbonyl)piperazin-1-yl]-7-oxo-4H,7H-[1,2,4]triazolo[1,5-a]pyrimidin-4-yl]acetamide], the half-inhibitory concentration (IC50) fell in the range of 5 to 50 nM.

The compound `CCc1c(N2CCN(C(=O)C(C)(C)C#N)CC2)c(=O)n2nc(C3=CCOCC3)nc2n1CC(=O)Nc1ccc(C(F)(F)F)cc1Cl` [Compound I-31, N-[2-chloro-4-(trifluoromethyl)phenyl]-2-{6-[4-(2-cyano-2,2-dimethylacetyl)piperazin-1-yl]-2-(3,6-dihydro-2H-pyran-4-yl)-5-ethyl-7-oxo-4H,7H-[1,2,4]triazolo[1,5-a]pyrimidin-4-yl}acetamide] had an IC50 of 50 to 100 nM.

In turn, `CCc1c(N2CCN(C(=O)c3ncnc(C)c3O)CC2)c(=O)n2nc(-c3cnn(C4CC4)c3)nc2n1CC(=O)Nc1ccc(C(F)(F)F)cc1Cl` [Compound I-32, N-[2-chloro-4-(trifluoromethyl)phenyl]-2-[2-(1-cyclopropyl-1H-pyrazol-4-yl)-5-ethyl-6-[4-(5-hydroxy-6-methylpyrimidine-4-carbonyl)piperazin-1-yl]-7-oxo-4H,7H-[1,2,4]triazolo[1,5-a]pyrimidin-4-yl]acetamide] yielded an IC50 of 5 to 50 nM.

`CCc1c(N2CCN(C(=O)c3ncnc(C)c3O)CC2)c(=O)n2nc(-c3ccn(C4CC4)n3)nc2n1CC(=O)Nc1ccc(C(F)(F)F)cc1Cl` [Compound I-33, N-[2-chloro-4-(trifluoromethyl)phenyl]-2-[2-(1-cyclopropyl-1H-pyrazol-3-yl)-5-ethyl-6-[4-(5-hydroxy-6-methylpyrimidine-4-carbonyl)piperazin-1-yl]-7-oxo-4H,7H-[1,2,4]triazolo[1,5-a]pyrimidin-4-yl]acetamide] returned an IC50 of 5 to 50 nM.

On to `CCc1c(N2CCN(C(=O)c3ccnc(OC)c3O)CC2)c(=O)n2nc(C3=CCOCC3)nc2n1CC(=O)Nc1ccc(C(F)(F)F)cc1Cl` [Compound I-34, N-[2-chloro-4-(trifluoromethyl)phenyl]-2-[2-(3,6-dihydro-2H-pyran-4-yl)-5-ethyl-6-[4-(3-hydroxy-2-methoxypyridine-4-carbonyl)piperazin-1-yl]-7-oxo-4H,7H-[1,2,4]triazolo[1,5-a]pyrimidin-4-yl]acetamide], for which the concentration for half-maximal inhibition (IC50) was 5 to 50 nM.

Consider `CCc1c(N2CCN(C(=O)c3nn(C)cc3O)CC2)c(=O)n2nc(-c3ccnc(OC)c3)nc2n1CC(=O)Nc1ccc(C(F)(F)F)cc1Cl` [Compound I-35, N-[2-chloro-4-(trifluoromethyl)phenyl]-2-{5-ethyl-6-[4-(4-hydroxy-1-methyl-1H-pyrazole-3-carbonyl)piperazin-1-yl]-2-(2-methoxypyridin-4-yl)-7-oxo-4H,7H-[1,2,4]triazolo[1,5-a]pyrimidin-4-yl}acetamide], for which the half-maximal inhibitory concentration (IC50) lay in the range of 5 to 50 nM.
